Assay results as given in patent publication US9896441B2 (Lycera Corporation, priority 2014, dated 2018).

Key:
RORγ-LBD = biological target: T1, RORγ-LBD (Homo sapiens, UniProt P51449); assay: RORγ-Ligand Binding Domain (LBD) TR-FRET Assay; assay type: biochemical; settings: for TR-FRET Assay Max Response: maximum response;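 as to TR-FRET Assay Max Response: 665/615 nm signal ratio set to 100 without ursolic acid or test compound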
T1 construct: made in house; host or cells: SF9 cells (baculovirus); used as diluted lysate
T1 sequence (P51449 269-508 limits assumed): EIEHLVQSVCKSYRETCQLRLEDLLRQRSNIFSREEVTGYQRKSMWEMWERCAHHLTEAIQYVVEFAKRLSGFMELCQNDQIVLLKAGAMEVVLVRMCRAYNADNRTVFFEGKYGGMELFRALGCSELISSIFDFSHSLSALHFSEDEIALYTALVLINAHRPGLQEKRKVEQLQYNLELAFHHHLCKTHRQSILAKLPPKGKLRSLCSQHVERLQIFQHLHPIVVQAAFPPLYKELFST
In short: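 His-tagged RORγ-LBD from SF9 baculovirus lysate, ~3 nM final, in 50 mM Tris pH 7.0, 50 mM KCl, 1 mM EDTA, 0.1 mM DTT, 0.01% BSA. Biotinylated SRC1 LXXLL peptide at 200 nM final with 2 μM ursolic acid; TR-FRET read-out, 1% DMSO final.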

Gal4-RORγ-LBD = biological target: T2, Gal4-RORγ-LBD (Homo sapiens, UniProt P51449); assay: Gal4-RORγ Luciferase Reporter Assay in HEK-293T Cells; assay type: cell-based; settings: HEK-293 cells; for Gal4-RORγ Assay Max Response: maximum response
T2 construct: expressed in transfected cells
T2 sequence (P51449 269-508 limits assumed): T1 sequence (P51449 269-508 limits assumed)
In short: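 HEK-293 cells were co-transfected with Gal4-RORγ-LBD and a Gal4-luciferase reporter, then exposed overnight at 37 °C to compounds with […] ursolic acid present (0.2% DMSO). Luminescence was read with One-Glo after 10 min at RT, untreated signal was set as 100, and Max Response was taken as the upper plateau of a 4-parameter logistic fit.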

[1] = luciferase reporter, with ursolic acid
[2] = luciferase reporter, in presence of ursolic acid
[3] = with 2 μM ursolic acid (RORγ antagonist), highest test concentration 10 μM
[4] = ursolic acid present, luciferase readout

SMILES: CCOc1nn(CC)cc1S(=O)(=O)N1C[C@H](CCC(=O)O)Oc2ccc(/C=C/c3cccnc3)cc21 [Example 89I, (S,E)-3-(4-((3-ethoxy-1-ethyl-1H-pyrazol-4-yl)sulfonyl)-6-(2-(pyridin-3-yl)vinyl)-3,4-dihydro-2H-benzo[b][1,4]oxazin-2-yl)propanoic acid]
- EC50 (RORγ-LBD; RORγ-LBD TR-FRET): > 10000 nM
- EC50 (Gal4-RORγ-LBD; [1]): > 10000 nM

SMILES: C[C@@H]1C/C(=C\c2ccc3c(c2)N(S(=O)(=O)c2cc(C(F)(F)F)cnc2OCCO)C[C@H](CCC(=O)O)O3)C[C@H](C)C1 [Example 95AA, 3-((S)-6-((E)-((3R,5S)-3,5-dimethylcyclohexylidene)-methyl)-4-((2-(2-hydroxy-ethoxy)-5-(trifluoromethyl)-pyridin-3-yl)sulfonyl)-3,4-dihydro-2H-benzo[b][1,4]oxazin-2-yl)propanoic acid]
- EC50 (RORγ-LBD; RORγ-LBD TR-FRET): < 500 nM
- EC50 (Gal4-RORγ-LBD; [1]): 500 to 5000 nM

SMILES: O=C(O)CC[C@H]1CN(S(=O)(=O)c2cc(C(F)(F)F)cnc2OCCO)c2cc(C=C3CCCCC3)ccc2O1 [Example 95C, (S)-3-(6-(cyclohexylidenemethyl)-4-((2-(2-hydroxyethoxy)-5-(trifluoromethyl)pyridin-3-yl)sulfonyl)-3,4-dihydro-2H-benzo[b][1,4]oxazin-2-yl)propanoic acid]
- EC50 (RORγ-LBD; RORγ-LBD TR-FRET): < 500 nM
- EC50 (Gal4-RORγ-LBD; [1]): 500 to 5000 nM

SMILES: CCOc1ncc(C(F)(F)F)cc1S(=O)(=O)N1C[C@H](CNC(=O)CCC(=O)O)Oc2ccc(/C=C/c3c(F)cccc3Cl)cc21 [Example 109F, (S,E)-4-(((6-(2-chloro-6-fluorostyryl)-4-((2-ethoxy-5-(trifluoro-methyl)pyridin-3-yl)sulfonyl)-3,4-dihydro-2H-benzo[b][1,4]oxazin-2-yl)methyl)amino)-4-oxobutanoic acid]
- EC50 (RORγ-LBD; RORγ-LBD TR-FRET assay): < 500 nM
- TR-FRET Assay Max Response (RORγ-LBD; RORγ-LBD TR-FRET assay): *** (a value in the range of greater than 150 to 200)
- EC50 (Gal4-RORγ-LBD; [2]): 500 to 5000 nM
- Gal4-RORγ Assay Max Response (Gal4-RORγ-LBD; [2]): ** (a value in the range of greater than 90 to 150)

SMILES: COC(=O)CC[C@H]1CN(S(=O)(=O)c2cccc(C(F)(F)F)c2)c2cc(/C=C/c3cccc(Cl)c3)ccc2O1 [Example 89DI, methyl (S,E)-3-(6-(3-chlorostyryl)-4-((3-(trifluoromethyl)phenyl)-sulfonyl)-3,4-dihydro-2H-benzo[b][1,4]oxazin-2-yl)propanoate]
- EC50 (RORγ-LBD; RORγ-LBD TR-FRET): < 500 nM
- EC50 (Gal4-RORγ-LBD; [1]): > 10000 nM

SMILES: COC(=O)CCC[C@H]1CN(S(=O)(=O)c2cccc(C(F)(F)F)c2)c2cc(/C=C/c3c(F)cccc3Cl)ccc2O1 [Example 195E, methyl (S,E)-4-(6-(2-chloro-6-fluorostyryl)-4-((3-(trifluoro-methyl)phenyl)sulfonyl)-3,4-dihydro-2H-benzo[b][1,4]oxazin-2-yl)butanoate]
- EC50 (RORγ-LBD; [3]): < 500 nM
- EC50 (Gal4-RORγ-LBD; [4]): 500 to 5000 nM

SMILES: COC(=O)CC[C@H]1CN(S(=O)(=O)c2cccc(C(F)(F)F)c2)c2cc(/C=C/c3cccc(F)c3Cl)ccc2O1 [Example 89BQ, (S,E)-methyl 3-(6-(2-chloro-3-fluorostyryl)-4-((3-(trifluoromethyl)phenyl)sulfonyl)-3,4-dihydro-2H-benzo[b][1,4]oxazin-2-yl)propanoate]
- EC50 (RORγ-LBD; RORγ-LBD TR-FRET): < 500 nM
- EC50 (Gal4-RORγ-LBD; [1]): 500 to 5000 nM

SMILES: C/C(=C\c1ccc2c(c1)N(S(=O)(=O)c1cccc(C(F)(F)F)c1)C[C@H](CCN1CCS(=O)(=O)CC1)O2)c1c(F)cccc1Cl [Example 119G, (S,E)-4-(2-(6-(2-(2-chloro-6-fluorophenyl)prop-1-en-1-yl)-4-((3-(trifluoromethyl)phenyl)sulfonyl)-3,4-dihydro-2H-benzo[b][1,4]oxazin-2-yl)ethyl)thiomorpholine 1,1-dioxide]
- EC50 (RORγ-LBD; RORγ-LBD TR-FRET assay): < 500 nM
- TR-FRET Assay Max Response (RORγ-LBD; RORγ-LBD TR-FRET assay): *** (a value in the range of greater than 150 to 200)
- EC50 (Gal4-RORγ-LBD; [2]): < 500 nM
- Gal4-RORγ Assay Max Response (Gal4-RORγ-LBD; [2]): * (a value in the range of 30 to 90)

SMILES: C/C(=C\c1ccc2c(c1)N(S(=O)(=O)c1cncc(C(F)(F)F)c1)C[C@H](CCC(=O)O)O2)c1c(F)cccc1Cl [Example 75, (S,E)-3-(6-(2-(2-Chloro-6-fluorophenyl)prop-1-en-1-yl)-4-((5-(trifluoromethyl)pyridin-3-yl)sulfonyl)-3,4-dihydro-2H-benzo[b][1,4]oxazin-2-yl)propanoic acid]
- EC50 (RORγ-LBD; RORγ-LBD TR-FRET): < 500 nM
- EC50 (Gal4-RORγ-LBD; [1]): 500 to 5000 nM

SMILES: CCOc1ncc(C(F)(F)F)cc1S(=O)(=O)N1C[C@H](CCC(=O)O)Oc2ccc(/C=C/c3c(OC)cccc3C(F)(F)F)cc21 [Example 89ET, (S,E)-3-(4-((2-ethoxy-5-(trifluoromethyl)pyridin-3-yl)sulfonyl)-6-(2-methoxy-6-(trifluoromethyl)styryl)-3,4-dihydro-2H-benzo[b][1,4]-oxazin-2-yl)propanoic acid]
- EC50 (RORγ-LBD; RORγ-LBD TR-FRET): < 500 nM
- EC50 (Gal4-RORγ-LBD; [1]): < 500 nM

SMILES: O=C(O)CC[C@H]1CN(S(=O)(=O)c2cccc(OC(F)F)c2)c2cc(/C=C/c3ccccn3)ccc2O1 [Example 89C, (S,E)-3-(4-((3-(difluoromethoxy)-phenyl)sulfonyl)-6-(2-(pyridin-2-yl)vinyl)-3,4-dihydro-2H-benzo[b][1,4]oxazin-2-yl)propanoic acid]
- EC50 (RORγ-LBD; RORγ-LBD TR-FRET): 500 to 5000 nM
- EC50 (Gal4-RORγ-LBD; [1]): 5000 to 10000 nM

SMILES: COC(=O)CC[C@H]1CN(S(=O)(=O)c2cccc(C(F)F)c2)c2cc(/C=C/c3c(Cl)cccc3C(F)F)ccc2O1 [Example 89EQ, methyl (S,E)-3-(6-(2-chloro-6-(difluoromethyl)styryl)-4-((3-(difluoromethyl)phenyl)-sulfonyl)-3,4-dihydro-2H-benzo[b][1,4]oxazin-2-yl)propanoate]
- EC50 (RORγ-LBD; RORγ-LBD TR-FRET): < 500 nM
- EC50 (Gal4-RORγ-LBD; [1]): < 500 nM

SMILES: COc1cc(S(=O)(=O)N2c3cc(/C=C(\C)c4c(F)cccc4Cl)ccc3O[C@@H](CNC(C)=O)[C@H]2C)ccc1F [Example 137]
- EC50 (RORγ-LBD; RORγ-LBD TR-FRET assay): < 500 nM
- TR-FRET Assay Max Response (RORγ-LBD; RORγ-LBD TR-FRET assay): **** (a value greater than 200)
- EC50 (Gal4-RORγ-LBD; [2]): < 500 nM
- Gal4-RORγ Assay Max Response (Gal4-RORγ-LBD; [2]): ** (a value in the range of greater than 90 to 150)

SMILES: CCOc1nn(CC)cc1S(=O)(=O)N1C[C@H](CCC(=O)O)Oc2ccc(/C=C/c3ccccc3F)cc21 [Example 89AM, (S,E)-3-(4-((3-ethoxy-1-ethyl-1H-pyrazol-4-yl)sulfonyl)-6-(2-fluorostyryl)-3,4-dihydro-2H-benzo[b][1,4]oxazin-2-yl)propanoic acid]
- EC50 (RORγ-LBD; RORγ-LBD TR-FRET): < 500 nM
- EC50 (Gal4-RORγ-LBD; [1]): > 10000 nM

SMILES: CC(C)n1cc(S(=O)(=O)N2C[C@H](CCC(=O)O)Oc3ccc(/C=C/c4c(Cl)cccc4C(F)(F)F)cc32)c(OCCO)n1 [Example 89ED, (S,E)-3-(6-(2-chloro-6-(trifluoromethyl)styryl)-4-((3-(2-hydroxyethoxy)-1-isopropyl-1H-pyrazol-4-yl)sulfonyl)-3,4-dihydro-2H-benzo[b][1,4]oxazin-2-yl)propanoic acid]
- EC50 (RORγ-LBD; RORγ-LBD TR-FRET): < 500 nM
- EC50 (Gal4-RORγ-LBD; [1]): < 500 nM

SMILES: CC/C(=C\c1ccc2c(c1)N(S(=O)(=O)c1cccc(C(F)(F)F)c1)C[C@H](CCC(=O)OC)O2)C(C)C [Example 191H, methyl (S,E)-3-(6-(2-ethyl-3-methylbut-1-en-1-yl)-4-((3-(trifluoromethyl)phenyl)sulfonyl)-3,4-dihydro-2H-benzo[b][1,4]-oxazin-2-yl)propanoate]
- EC50 (RORγ-LBD; [3]): < 500 nM
- EC50 (Gal4-RORγ-LBD; [4]): < 500 nM

SMILES: COc1cccc(S(=O)(=O)N2C[C@H](CCC(=O)O)Oc3ccc(/C=C(\C)c4c(F)cccc4Cl)cc32)c1 [Example 86M, (S,E)-3-(6-(2-(2-chloro-6-fluorophenyl)prop-1-en-1-yl)-4-((3-methoxyphenyl)sulfonyl)-3,4-dihydro-2H-benzo[b][1,4]oxazin-2-yl)propanoic acid]
- EC50 (RORγ-LBD; RORγ-LBD TR-FRET): < 500 nM
- EC50 (Gal4-RORγ-LBD; [1]): 500 to 5000 nM

SMILES: COc1cc(S(=O)(=O)N2CCCc3ccc(O[C@@H]4c5ccccc5C[C@H]4C)cc32)ccc1F (relative stereo) [Example 25E, 1-((4-fluoro-3-methoxyphenyl)sulfonyl)-7-(((trans)-2-methyl-2,3-dihydro-1H-inden-1-yl)oxy)-1,2,3,4-tetrahydroquinoline]
- EC50 (RORγ-LBD; RORγ-LBD TR-FRET): < 500 nM
- EC50 (Gal4-RORγ-LBD; [1]): 500 to 5000 nM

SMILES: O=C(O)CC[C@H]1CN(S(=O)(=O)c2cccc(OC(F)F)c2)c2cc(/C=C/c3c(Cl)cccc3C(F)(F)F)ccc2O1 [Example 89DQ, (S,E)-3-(6-(2-chloro-6-(trifluoromethyl)styryl)-4-((3-(difluoromethoxy)phenyl)sulfonyl)-3,4-dihydro-2H-benzo[b][1,4]oxazin-2-yl)propanoic acid]
- EC50 (RORγ-LBD; RORγ-LBD TR-FRET): < 500 nM
- EC50 (Gal4-RORγ-LBD; [1]): < 500 nM

SMILES: O=C(O)CC[C@H]1CN(S(=O)(=O)c2cccc(C(F)(F)F)c2)c2cc(C3CCCCC3)ccc2O1 [Example 194, (S)-3-(6-cyclohexyl-4-((3-(trifluoromethyl)phenyl)sulfonyl)-3,4-dihydro-2H-benzo[b][1,4]oxazin-2-yl)propanoic acid]
- EC50 (RORγ-LBD; [3]): < 500 nM
- EC50 (Gal4-RORγ-LBD; [4]): < 500 nM

SMILES: C/C(=C\c1ccc2c(c1)N(S(=O)(=O)c1cccc(C(F)(F)F)c1)C[C@H](CCC(=O)N1CCOCC1)O2)c1c(F)cccc1Cl [Example 127B, (S,E)-3-(6-(2-(2-chloro-6-fluorophenyl)prop-1-en-1-yl)-4-((3-(trifluoromethyl)phenyl)sulfonyl)-3,4-dihydro-2H-benzo[b][1,4]oxazin-2-yl)-1-morpholino-propan-1-one]
- EC50 (RORγ-LBD; RORγ-LBD TR-FRET assay): < 500 nM
- TR-FRET Assay Max Response (RORγ-LBD; RORγ-LBD TR-FRET assay): **** (a value greater than 200)
- EC50 (Gal4-RORγ-LBD; [2]): < 500 nM
- Gal4-RORγ Assay Max Response (Gal4-RORγ-LBD; [2]): ** (a value in the range of greater than 90 to 150)
